Experimental data reported in ChEMBL document CHEMBL1201862, “PubChem BioAssay data set” (2004).
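Compound exposure: 48 hours, 5 concentrations, 96-well plates. Abbreviation: GI50, concentration required for 50% inhibition of growth.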 Calls of active or inactive are those of the source. Cut-off read from the data, not from the text of the source: active = GI50 up to about 1.1 µM and inactive = higher.

What was measured:
Assay in all cases: inhibition of tumour cell growth, NCI panel, 48 h
[1] = test system: 786-0
[2] = test system: COLO 205
[3] = test system: SK-MEL-28
[4] = test system: NCI-H460
[5] = test system: KM-20L2
[6] = test system: HOP-62
[7] = test system: UACC-257
[8] = test system: RPMI-8226
[9] = test system: OVCAR-3
[10] = test system: HCT-116
[11] = test system: HOP-92
[12] = test system: CAKI-1
[13] = test system: SF-295
[14] = test system: HCC 2998
[15] = test system: SK-MEL-5
[16] = test system: SK-MEL-2

Compound	GI50 [1]	GI50 [2]	GI50 [3]	GI50 [4]	GI50 [5]	GI50 [6]	GI50 [7]	GI50 [8]	GI50 [9]	GI50 [10]	GI50 [11]	GI50 [12]	GI50 [13]	GI50 [14]	GI50 [15]	GI50 [16]
O=C(Nc1cc(Cl)c(Cl)cc1Cl)C(=O)C(C(=O)c1ccccc1)C1OC(=O)c2ccccc21 (stereo not given)	> 100 µM (inactive)	> 100 µM (inactive)	> 100 µM (inactive)	> 100 µM (inactive)	> 100 µM (inactive)	> 100 µM (inactive)	> 100 µM (inactive)	> 100 µM (inactive)	> 100 µM (inactive)	> 100 µM (inactive)	> 100 µM (inactive)	> 100 µM (inactive)	> 100 µM (inactive)	> 100 µM (inactive)		
O=C1c2ccccc2C(=O)C1C(c1ccc(F)cc1)C1C(=O)c2ccccc2C1=O	> 100 µM (inactive)	> 100 µM (inactive)	> 100 µM (inactive)	> 100 µM (inactive)	> 100 µM (inactive)	> 100 µM (inactive)	> 100 µM (inactive)	48.3 µM (inactive)	> 100 µM (inactive)	> 100 µM (inactive)	> 100 µM (inactive)	> 100 µM (inactive)	> 100 µM (inactive)	> 100 µM (inactive)	> 100 µM (inactive)	> 100 µM (inactive)
CC(=O)OC1CC2C(C)(C)C(=O)C=C[C@]2(C)C2CCC3(C)C(=CCC3[C@H](CO)C[C@H](O)C(=O)C(C)(C)O)[C@]12C (stereo not given in full)	19.7 µM (inactive)	42.1 µM (inactive)	19.4 µM (inactive)	16.6 µM (inactive)	13.6 µM (inactive)		14.5 µM (inactive)	22.3 µM (inactive)	19.5 µM (inactive)	30.3 µM (inactive)		15.9 µM (inactive)	12.9 µM (inactive)	18.1 µM (inactive)	19 µM (inactive)	20.7 µM (inactive)
COc1ccc(C=C(c2ccc(OCc3ccccc3)cc2)c2ccc(OCc3ccccc3)cc2)cc1	> 100 µM (inactive)	> 100 µM (inactive)	> 100 µM (inactive)	> 100 µM (inactive)	> 100 µM (inactive)	> 100 µM (inactive)	> 100 µM (inactive)	> 100 µM (inactive)	> 100 µM (inactive)			> 100 µM (inactive)	> 100 µM (inactive)	> 100 µM (inactive)	> 100 µM (inactive)	> 100 µM (inactive)
N#CC1(N2CCCC2)CCC2(CC1)OCCO2	> 100 µM (inactive)	> 10 µM (inactive)	> 100 µM (inactive)	> 100 µM (inactive)	> 100 µM (inactive)	> 100 µM (inactive)	> 100 µM (inactive)	> 100 µM (inactive)	> 100 µM (inactive)	> 100 µM (inactive)	> 100 µM (inactive)	> 100 µM (inactive)	> 100 µM (inactive)	> 100 µM (inactive)	> 100 µM (inactive)	> 100 µM (inactive)
CCOP(=O)(OCC)C(C(=O)OC)C(=O)C(=O)Nc1ccc(Cl)cc1Cl (stereo not given)	> 100 µM (inactive)	> 100 µM (inactive)	> 100 µM (inactive)	> 100 µM (inactive)	> 100 µM (inactive)	> 100 µM (inactive)	> 100 µM (inactive)	> 100 µM (inactive)	> 100 µM (inactive)	> 100 µM (inactive)	> 100 µM (inactive)	> 100 µM (inactive)		> 100 µM (inactive)	> 100 µM (inactive)	> 100 µM (inactive)
COc1ccc(C(=O)C=C2NCCN2)cc1	> 100 µM (inactive)	> 100 µM (inactive)	> 100 µM (inactive)	> 100 µM (inactive)	> 100 µM (inactive)	> 100 µM (inactive)	> 100 µM (inactive)	> 100 µM (inactive)	> 100 µM (inactive)	> 100 µM (inactive)	> 100 µM (inactive)	> 100 µM (inactive)	> 100 µM (inactive)	> 100 µM (inactive)	> 100 µM (inactive)	> 100 µM (inactive)
CC(=O)OCC1OC(OC2CC3C(C)(C)C(O)CC[C@]3(C)C3CCC45CC4(CC[C@H]5C(C)CC(O)C4OC4(C)C)[C@]23C)C(O)C(O)C1O (stereo not given in full)	7.57 µM (inactive)	7.24 µM (inactive)	7.41 µM (inactive)	8.91 µM (inactive)	8.13 µM (inactive)	11.1 µM (inactive)	9.04 µM (inactive)	0.711 µM (active)	6.17 µM (inactive)	9.14 µM (inactive)	5.06 µM (inactive)	8.87 µM (inactive)	8.24 µM (inactive)	7.06 µM (inactive)	3.1 µM (inactive)	5.86 µM (inactive)
COC(=O)C1=C(C(=O)OC)C2(CCCCCC2=O)OC1=O (stereo not given)	> 100 µM (inactive)	> 100 µM (inactive)	> 100 µM (inactive)	> 100 µM (inactive)	> 100 µM (inactive)	> 100 µM (inactive)	> 100 µM (inactive)	> 100 µM (inactive)	> 100 µM (inactive)	> 100 µM (inactive)	> 100 µM (inactive)	> 100 µM (inactive)	> 100 µM (inactive)	> 100 µM (inactive)	> 100 µM (inactive)	> 100 µM (inactive)
CC1=Nn2c(nnc2-c2ccc(N)cc2)NC(C)(C)C1	> 100 µM (inactive)	> 100 µM (inactive)	> 100 µM (inactive)	> 100 µM (inactive)	> 100 µM (inactive)	> 100 µM (inactive)	> 100 µM (inactive)	> 100 µM (inactive)	> 100 µM (inactive)		> 100 µM (inactive)	> 100 µM (inactive)	> 100 µM (inactive)	> 100 µM (inactive)	> 100 µM (inactive)	> 100 µM (inactive)
O=C1CCCCC12CCC/C2=N\O (stereo not given)	> 100 µM (inactive)	> 100 µM (inactive)	> 100 µM (inactive)	> 100 µM (inactive)	> 100 µM (inactive)	> 100 µM (inactive)	> 100 µM (inactive)	> 100 µM (inactive)	> 100 µM (inactive)	> 100 µM (inactive)		> 100 µM (inactive)		> 100 µM (inactive)	> 100 µM (inactive)	> 100 µM (inactive)
CCOC1=C2N=C(Cc3ccccc3F)N=C2C(=O)c2ccccc21	> 100 µM (inactive)	> 100 µM (inactive)	> 100 µM (inactive)	> 100 µM (inactive)	> 100 µM (inactive)	> 100 µM (inactive)	> 100 µM (inactive)	> 100 µM (inactive)	> 100 µM (inactive)	> 100 µM (inactive)	> 100 µM (inactive)	> 100 µM (inactive)	> 100 µM (inactive)	> 100 µM (inactive)		> 100 µM (inactive)
C=CCOC(C)n1c(C)c(Br)c(=O)[nH]c1=O (stereo not given)	> 100 µM (inactive)	> 100 µM (inactive)	> 100 µM (inactive)	> 100 µM (inactive)	> 100 µM (inactive)		> 100 µM (inactive)		> 100 µM (inactive)	> 100 µM (inactive)	> 100 µM (inactive)	> 100 µM (inactive)	> 100 µM (inactive)	> 100 µM (inactive)	> 100 µM (inactive)	> 100 µM (inactive)
N#C/C(=C\c1cc(O)ccc1O)C(N)=O	29.4 µM (inactive)	33.3 µM (inactive)	37.1 µM (inactive)	40.7 µM (inactive)	46.8 µM (inactive)	> 100 µM (inactive)	28.4 µM (inactive)	27.2 µM (inactive)	38.6 µM (inactive)	63.2 µM (inactive)	34.4 µM (inactive)	46.2 µM (inactive)	47.6 µM (inactive)	67.3 µM (inactive)		42.5 µM (inactive)
O=C(O)CCNCCCCNCCC(=O)O	> 100 µM (inactive)	> 100 µM (inactive)	> 100 µM (inactive)	> 100 µM (inactive)	> 100 µM (inactive)	> 100 µM (inactive)		> 100 µM (inactive)	> 100 µM (inactive)	> 100 µM (inactive)	> 100 µM (inactive)	> 100 µM (inactive)	> 100 µM (inactive)	> 100 µM (inactive)	> 100 µM (inactive)	> 100 µM (inactive)
Clc1ccc(C2SCc3nc4ccccc4n32)c(Cl)c1 (stereo not given)	17.2 µM (inactive)	17 µM (inactive)	16.6 µM (inactive)	16.6 µM (inactive)	21.4 µM (inactive)	14 µM (inactive)	9.79 µM (inactive)	6.92 µM (inactive)	14.1 µM (inactive)	14 µM (inactive)	2.83 µM (inactive)		8.36 µM (inactive)	14.6 µM (inactive)	7.93 µM (inactive)	16.5 µM (inactive)
CCc1ccc(Cc2ccc(CC)c(NC(=O)C(=O)Cc3nc4ccccc4nc3C)c2CC)c(CC)c1NC(=O)C(=O)Cc1nc2ccccc2nc1C	> 100 µM (inactive)	> 100 µM (inactive)	66.7 µM (inactive)	> 100 µM (inactive)	> 100 µM (inactive)	> 100 µM (inactive)	> 100 µM (inactive)	> 100 µM (inactive)	15 µM (inactive)	52.5 µM (inactive)	4.02 µM (inactive)	25.4 µM (inactive)		62.5 µM (inactive)	> 100 µM (inactive)	> 100 µM (inactive)
CCCCCCCCCCn1cccc1/C=C/c1ccc(/C=C/c2cccn2CCCCCCCCCC)cc1	> 100 µM (inactive)	> 100 µM (inactive)	> 100 µM (inactive)	> 100 µM (inactive)	> 100 µM (inactive)	> 100 µM (inactive)	> 100 µM (inactive)	> 100 µM (inactive)	> 100 µM (inactive)	> 100 µM (inactive)	> 100 µM (inactive)	> 100 µM (inactive)	> 100 µM (inactive)	> 100 µM (inactive)	> 100 µM (inactive)	
